Experimental findings from patent publication US20200216439A1, “HETERO-1,5,6,7-TETRAHYDRO-4H-INDOL-4-ONES” (BAYER PHARMA AKTIENGESELLSCHAFT, priority 2015, published 2020) are described below.

For this experiment, the target named is T1, catalytic domain of human Bub1 (amino acids 704-1085) (Homo sapiens, UniProt O43683).
T1 construct: catalytic domain of human Bub1 (amino acids 704-1085); His6 (N); made in house; host or cells: Hi5 insect cells
Briefly: Bub1 kinase assay (TR-FRET). Particulars: TR-FRET; ATP 10 μM, peptide substrate 1 μM; 60 min at 22° C.; average or median if tested more than once; read-out: Inhibition of Bub1 kinase IC50. Type of experiment: biochemical. From the text:
Bub1-inhibitory activities of compounds described in the present invention were quantified using a time-resolved fluorescence energy transfer (TR-FRET) kinase assay which measures phosphorylation of the synthetic peptide Biotin-Ahx-VLLPKKSFAEPG (C-terminus in amide form), purchased from e.g. Biosyntan (Berlin, Germany) by the (recombinant) catalytic domain of human Bub1 (amino acids 704-1085), expressed in Hi5 insect cells with an N-terminal His6-tag and purified by affinity—(Ni-NTA) and size exclusion chromatography.
In a typical assay 11 different concentrations of each compound (0.1 nM, 0.33 nM, 1.1 nM, 3.8 nM, 13 nM, 44 nM, 0.15 μM, 0.51 μM, 1.7 μM, 5.9 μM and 20 μM) were tested in duplicate within the same microtiter plate. To this end, 100-fold concentrated compound solutions (in DMSO) were previously prepared by serial dilution (1:3.4) of 2 mM stocks in a clear low volume 384-well source microtiter plate (Greiner Bio-One, Frickenhausen, Germany), from which 50 nl of compounds were transferred into a black low volume test microtiter plate from the same supplier. Subsequently, 2 μL of Bub1 (the final concentration of Bub1 was adjusted depending on the activity of the enzyme lot in order to be within the linear dynamic range of the assay: typically ˜200 ng/mL were used) in aqueous assay buffer [50 mM Tris/HCl pH 7.5, 10 mM magnesium chloride (MgCl2), 200 mM potassium chloride (KCl), 1.0 mM dithiothreitol (DTT), 0.1 mM sodium ortho-vanadate, 1% (v/v) glycerol, 0.01% (w/v) bovine serum albumine (BSA), 0.005% (v/v) Trition X-100 (Sigma), 1× Complete EDTA-free protease inhibitor mixture (Roche)] were added to the compounds in the test plate and the mixture was incubated for 15 min at 22° C. to allow pre-equilibration of the putative enzyme-inhibitor complexes before the start of the kinase reaction, which was initiated by the addition of 3 μL 1.67-fold concentrated solution (in assay buffer) of adenosine-tri-phosphate (ATP, 10 μM final concentration) and peptide substrate (1 μM final concentration). The resulting mixture (5 μL final volume) was incubated at 22° C. during 60 min., and the reaction was stopped by the addition of 5 μL of an aqueous EDTA-solution (50 mM EDTA, in 100 mM HEPES pH 7.5 and 0.2% (w/v) bovine serum albumin) which also contained the TR-FRET detection reagents (0.2 μM streptavidin-XL665 [Cisbio Bioassays, Codolet, France] and 1 nM anti-phospho-Serine antibody [Merck Millipore, cat. #35-002] and 0.4 nM LANCE EU-W1024 labeled anti-mouse IgG antibody [Perkin-Elmer, product no. AD0077, alternatively a Terbium-cryptate-labeled anti-mouse IgG antibody from Cisbio Bioassays can be used]). The stopped reaction mixture was further incubated 1 h at 22° C. in order to allow the formation of complexes between peptides and detection reagents. Subsequently, the amount of product was evaluated by measurement of the resonance energy transfer from the Eu-chelate-antibody complex recognizing the Phosphoserine residue to the streptavidin-XL665 bound to the biotin moiety of the peptide. To this end, the fluorescence emissions at 620 nm and 665 nm after excitation at 330-350 nm were measured in a TR-FRET plate reader, e.g. a Rubystar or Pherastar (both from BMG Labtechnologies, Offenburg, Germany) or a Viewlux (Perkin-Elmer) and the ratio of the emissions (665 nm/[…]) was taken as indicator for the amount of phosphorylated substrate. The data were normalised using two sets of control wells for high—(=enzyme reaction without inhibitor=0%=Minimum inhibition) and low—(=all assay components without enzyme=100%=Maximum inhibition) Bub1 activity. IC50 values were calculated by fitting the normalized inhibition data to a 4-parameter logistic equation (Minimum, Maximum, IC50, Hill; Y=Max+(Min−Max)/(1+(X/IC50)Hill)).
Background: Time-resolved FRET reads energy transfer from a long-lived donor to a nearby acceptor.

T1 sequence (O43683 704-1085): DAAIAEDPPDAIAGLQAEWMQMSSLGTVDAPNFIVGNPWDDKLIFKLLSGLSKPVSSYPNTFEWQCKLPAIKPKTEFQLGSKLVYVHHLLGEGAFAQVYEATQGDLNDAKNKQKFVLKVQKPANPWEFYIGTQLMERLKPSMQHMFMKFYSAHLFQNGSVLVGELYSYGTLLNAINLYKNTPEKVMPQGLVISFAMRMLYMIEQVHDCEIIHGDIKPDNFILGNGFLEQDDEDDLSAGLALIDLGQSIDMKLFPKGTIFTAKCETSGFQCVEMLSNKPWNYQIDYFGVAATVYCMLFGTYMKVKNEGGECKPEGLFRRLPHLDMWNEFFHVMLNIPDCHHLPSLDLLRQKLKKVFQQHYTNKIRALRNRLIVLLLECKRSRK

Regarding `O=C1CN(S(=O)(=O)C(F)F)Cc2[nH]c(-c3ccncc3)c(Nc3ccccc3)c21` [Example 68, 6-[(Difluoromethyl)sulfonyl]-3-(phenylamino)-2-(pyridin-4-yl)-1,5,6,7-tetrahydro-4H-pyrrolo[2,3-c]pyridin-4-one], the 50% inhibitory concentration (IC50) (in general, the concentration at which inhibition is half-maximal) came to 5 nM. In the case of `C[S+]([O-])CCNC(=O)N1CC(=O)c2c([nH]c(-c3ccncc3)c2Nc2ccccc2)C1` (racemic) [Example 88, N-{2-[(RS)-Methylsulfinyl]ethyl}4-oxo-3-(phenylamino)-2-(pyridin-4-yl)-1,4,5,7-tetrahydro-6H-pyrrolo[2,3-c]pyridine-6-carboxamide] it was 21 nM; in that of `O=C(Nc1cc(-c2[nH]c3c(c2Nc2ccccc2)C(=O)CNC3)ccn1)c1ccc(F)cc1` [Example 134, N-[4-(3-anilino-4-oxo-4,5,6,7-tetrahydro-1H-pyrrolo[2,3-c]pyridin-2-yl)pyridin-2-yl]-4-fluorobenzamide], 36 nM; in that of `CCOC(=O)N1CC(=O)c2c([nH]c(-c3ccnc(NC(=O)[C@@H]4C[C@@H]4F)c3)c2Nc2ccccc2)C1` [Example 215, Ethyl 2-[2-([(1S,2S)-2-fluorocyclopropyl]carbonylamino)pyridin-4-yl]-4-oxo-3-(phenylamino)-1,4,5,7-tetrahydro-6H-pyrrolo[2,3-c]pyridine-6-carboxylate], 4 nM. Then `CC(=O)N1CC(=O)c2c([nH]c(-c3ccncc3OCC(F)(F)F)c2Nc2ccccc2)C1` [Example 229, 6-Acetyl-3-(phenylamino)-2-[3-(2,2,2-trifluoroethoxy)pyridin-4-yl]-1,5,6,7-tetrahydro-4H-pyrrolo[2,3-c]pyridin-4-one], with 163 nM; and `CC(=O)Nc1cc(-c2[nH]c3c(c2Nc2ccc(C)cc2)C(=O)CN(S(=O)(=O)C(C)C)C3)ccn1` [Example 318, N-(4-(3-[(4-Methylphenyl)amino]-4-oxo-(propan-2-ylsulfonyl)-1,5,6,7-tetrahydro-1H-pyrrolo[2,3-c]pyridin-2-yl)pyridin-2-yl)acetamide], with 31 nM. As to `CC(=O)N1CC(=O)c2c([nH]c(-c3ccncc3OCC3CC3)c2Nc2ccccc2)C1` [Example 231, 6-Acetyl-2-[3-(cyclopropylmethoxy)pyridin-4-yl]-3-(phenylamino)-1,5,6,7-tetrahydro-4H-pyrrolo[2,3-c]pyridin-4-one], the concentration for half-maximal inhibition (IC50) was determined as 40 nM. Then `CC(C)(C)OC(=O)N1CC(=O)c2c([nH]c(-c3ccnc(NC(=O)[C@@H]4C[C@@H]4F)c3)c2Nc2ccccc2)C1` (relative stereo) [Example 120, tert-Butyl 2-[2-({[rel-(1S,2S)-2-fluorocyclopropyl]carbonyl}amino)pyridin-4-yl]-4-oxo-3-(phenylamino)-1,4,5,7-tetrahydro-6H-pyrrolo[2,3-c]pyridine-6-carboxylate], with 9 nM; and `CN(C)CC(=O)Nc1cc(-c2[nH]c3c(c2Nc2ccccc2)C(=O)COC3)ccn1` [Example 153, N-[4-(3-Anilino-4-oxo-1,4,5,7-tetrahydropyrano[3,4-b]pyrrol-2-yl)pyridin-2-yl]-N^2,N^2-dimethylglycinamide], with 510 nM. In the case of `COC(=O)N1CC(=O)c2c([nH]c(-c3ccncc3OCC(F)(F)F)c2Nc2ccccc2)C1` [Example 242, Methyl 4-oxo-3-(phenylamino)-2-[3-(2,2,2-trifluoroethoxy)pyridin-4-yl]-1,4,5,7-tetrahydro-6H-pyrrolo[2,3-c]pyridine-6-carboxylate] it was 57 nM; in that of `CS(=O)(=O)N1CC(=O)c2c([nH]c(-c3ccnc(NC(=O)C4CC4(F)F)c3)c2Nc2ccccc2)C1` (racemic) [Example 149, (1RS)—N-{4-[3-Anilino-6-(methylsulfonyl)-4-oxo-4,5,6,7-tetrahydro-1H-pyrrolo[2,3-c]pyridin-2-yl]pyridin-2-yl}-2,2-difluorocyclopropanecarboxamide], 4 nM. On to `O=C1CN(C(=O)N2CCCCC2)Cc2[nH]c(-c3ccncc3)c(Nc3ccccc3)c21` [Example 93, 3-(phenylamino)-6-(piperidin-1-ylcarbonyl)-2-(pyridin-4-yl)-1,5,6,7-tetrahydro-4H-pyrrolo[2,3-c]pyridin-4-one], for which the IC50 stood at 4 nM. For the compound `CC(=O)Nc1cc(-c2[nH]c3c(c2Nc2ccccc2)C(=O)CN(C(=O)CCC(F)(F)F)C3)ccn1` [Example 190, N-{4-[3-Anilino-4-oxo-6-(4,4,4-trifluorobutanoyl)-4,5,6,7-tetrahydro-1H-pyrrolo[2,3-c]pyridin-2-yl]pyridin-2-yl}acetamide], the IC50 is 135 nM. In the case of `O=C1CNCc2[nH]c(-c3ccnc(NC(=O)[C@@H]4C[C@@H]4F)c3)c(Nc3ccccc3)c21` [Example 197, (1S,2S)—N-[4-(3-anilino-4-oxo-4,5,6,7-tetrahydro-1H-pyrrolo[2,3-c]pyridin-2-yl)pyridin-2-yl]-2-fluorocyclopropanecarboxamide] it was 40 nM; in that of `CC(=O)Nc1cc(-c2[nH]c3c(c2Nc2ccccc2)C(=O)CN(C(=O)C(C)C(F)(F)F)C3)ccn1` (racemic) [Example 178, N-(4-{3-Anilino-4-oxo-6-[(2RS)-3,3,3-trifluoro-2-methylpropanoyl]-4,5,6,7-tetrahydro-1H-pyrrolo[2,3-c]pyridin-2-yl}pyridin-2-yl)acetamide], 5 nM; in that of `CC(C)(C)OC(=O)N1CC(=O)c2c([nH]c(-c3ccnc(NC(=O)c4ccc(F)cc4)c3)c2Nc2ccccc2)C1` [Example 133, tert-Butyl 3-anilino-2-{2-[(4-fluorobenzoyl)amino]pyridin-4-yl}-4-oxo-1,4,5,7-tetrahydro-6H-pyrrolo[2,3-c]pyridine-6-carboxylate], 28 nM. In the case of `CC(C)(C)OC(=O)N1CC(=O)c2c([nH]c(-c3ccnc(NC(=O)C(C)(C)F)c3)c2Nc2ccccc2)C1` [Example 119, tert-Butyl 2-{2-[(2-fluoro-2-methylpropanoyl)amino]pyridin-4-yl}-4-oxo-3-(phenylamino)-1,4,5,7-tetrahydro-6H-pyrrolo[2,3-c]pyridine-6-carboxylate] it was 42 nM; in that of `CC(C)(C)NC(=O)N1CC(=O)c2c([nH]c(-c3ccncc3)c2Nc2ccccc2)C1` [Example 85, N-tert-Butyl-4-oxo-3-(phenylamino)-2-(pyridin-4-yl)-1,4,5,7-tetrahydro-6H-pyrrolo[2,3-c]pyridine-6-carboxamide], 13 nM; in that of `CN(C)C(=O)N1CC(=O)c2c([nH]c(-c3ccncc3OCC(F)F)c2Nc2ccccc2)C1` [Example 238, 2-[3-(2,2-Difluoroethoxy)pyridin-4-yl]-N,N-dimethyl-4-oxo-3-(phenylamino)-1,4,5,7-tetrahydro-6H-pyrrolo[2,3-c]pyridine-6-carboxamide], 8 nM. For `CC(C)(C)OC(=O)N1CC(=O)c2c([nH]c(-c3ccnc(N)c3)c2Nc2ccc(F)cc2)C1` [Example 296, tert-Butyl 2-(2-aminopyridin-4-yl)-3-[(4-fluorophenyl)amino]-4-oxo-1,4,5,7-tetrahydro-6H-pyrrolo[2,3-c]pyridine-6-carboxylate], the IC50 came out at 172 nM. In the case of `O=C1CN(C(=O)N2CCOCC2)Cc2[nH]c(-c3ccncc3OCC(F)(F)F)c(Nc3ccccc3)c21` [Example 245, 6-(Morpholin-4-ylcarbonyl)-3-(phenylamino)-2-[3-(2,2,2-trifluoroethoxy)pyridin-4-y]1,5,6,7-tetrahydro-4H-pyrrolo[2,3-c]pyridin-4-one], the IC50 was found to be 73 nM.
